Assay [1] addresses T1, bovine m-calpain (Bos taurus, UniProt Q27971).
T1 construct: purchased Sigma
T1 sequence (Q27971 20-700 limits assumed): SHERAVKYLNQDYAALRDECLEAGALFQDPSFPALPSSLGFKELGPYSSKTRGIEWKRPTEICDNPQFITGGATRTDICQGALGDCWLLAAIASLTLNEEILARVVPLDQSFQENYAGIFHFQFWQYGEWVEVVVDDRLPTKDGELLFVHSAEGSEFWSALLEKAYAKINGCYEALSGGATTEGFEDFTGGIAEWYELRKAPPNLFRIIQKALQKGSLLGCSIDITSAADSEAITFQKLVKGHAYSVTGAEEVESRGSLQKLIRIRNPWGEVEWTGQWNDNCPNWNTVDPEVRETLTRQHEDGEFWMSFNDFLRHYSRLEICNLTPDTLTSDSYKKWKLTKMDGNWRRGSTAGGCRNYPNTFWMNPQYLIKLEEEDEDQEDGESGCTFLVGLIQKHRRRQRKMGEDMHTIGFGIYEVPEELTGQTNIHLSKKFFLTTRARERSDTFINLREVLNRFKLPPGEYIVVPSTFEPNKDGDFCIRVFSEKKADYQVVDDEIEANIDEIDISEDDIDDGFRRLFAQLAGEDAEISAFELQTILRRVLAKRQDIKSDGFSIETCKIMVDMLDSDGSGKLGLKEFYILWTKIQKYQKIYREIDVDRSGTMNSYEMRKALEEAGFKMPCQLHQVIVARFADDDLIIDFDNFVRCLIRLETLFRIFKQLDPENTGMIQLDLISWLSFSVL
T1 sequence (P13135 1-263 partner): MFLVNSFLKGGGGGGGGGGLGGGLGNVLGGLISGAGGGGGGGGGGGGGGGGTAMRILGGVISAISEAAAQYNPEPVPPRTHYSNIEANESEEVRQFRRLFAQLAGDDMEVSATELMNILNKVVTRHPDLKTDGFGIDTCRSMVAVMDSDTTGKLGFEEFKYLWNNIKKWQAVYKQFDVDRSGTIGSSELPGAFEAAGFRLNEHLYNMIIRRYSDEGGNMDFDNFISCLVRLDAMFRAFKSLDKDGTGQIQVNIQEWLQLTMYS
As to the kind of experiment: Degradation of p53 proteins by exogenous m-calpain in rabbit reticulocyte lysate. Format: biochemical. The settings on record: m-calpain plus calcium, mouse and human wild-type and mutated p53. An excerpt: 1.1. […] The proteins thus obtained are resistant to any degradation, even in the presence of a high concentration of calcium (cofactor essential for the calpains). The addition of bovine m-calpain (Sigma) to the reticulocyte lysate in the presence of calcium led to the rapid disappearance of the neosynthesized proteins and the appearance of proteolytic fragments which are resolvable by electrophoresis. The degradation resistance of other proteins such as dihydrofolate reductase or glyceraldehyde-3-phosphate dehydrogenase under the same experimental conditions indicates the substrate specificity of the reaction.
1.2. Use of inhibitors of calpain for modulating the levels of p53 proteins: in the above Example 1.1., it was shown that the addition of m-calpain induced degradation of the p53 proteins. In this example, in addition to m-calpain, various compounds were introduced into the medium in order to test their capacity to inhibit the activity of calpain.

Assay [2] relates to calpains of the cytoplasmic extract. Kind of assay: Degradation of p53 proteins by endogenous calpains in cytoplasmic extracts of Daudi or Jurkat cells. The settings on record: in the presence of calcium. Type of assay: biochemical, human. As to the method: 2.1. Degradation by the endogenous calpains: mouse and human wild-type p53 proteins, as well as certain mutated forms (cf Example 1) were translated in the reticulocyte lysate and were then incubated in the presence of cytoplasmic extracts of Daudi or Jurkat human lymphoblastoid cells. The cytoplasmic extracts were prepared in the following manner: the cells (available at the ATCC) were cultured in DMEM medium supplemented with 10% foetal calf serum. The cells were then harvested, washed in PBS buffer and then incubated for 5 min in a detergent-free hypotonic lysis buffer (HEPES 20 mM, pH 7.5; KOAc 10 mM; MgOAc 1.5 mM; 2 ml per 5×10^8 cells). The lysis was completed using a Dounce homogenizer and then checked under a microscope. The nuclei were then removed by centrifugation at 2000 g for 5 min, and the supernatants were centrifuged at 10,000 g for 1 hour (Beckman SW60). The cytoplasmic extracts were then aliquoted in an amount of 5 to 12 mg/ml.

`O=C(O)CN(CCOCCOCCN(CC(=O)O)CC(=O)O)CC(=O)O` [EGTA]: the “inhibition of the degradation of the p53 proteins induced by the exogenous calpain” value in assay [1] is listed as “capable of inhibiting the degradation of the p53 proteins”.

Turning to `O=S(=O)(F)Cc1ccccc1` [PMSF], in assay [2], the “effect on calcium-dependent degradation of p53 proteins in cytoplasmic extracts” value (“effect on calcium-dependent degradation” for short) is given as “show that the degradation of these proteins is dependent on the calpains”.

Take `CC(=O)N[C@@H](CC(C)C)C(=O)N[C@@H](CC(C)C)C(=O)N[C@H](C=O)CCCNC(=N)N` [leupeptin]: the “effect on calcium-dependent degradation” value in assay [2] is on record as “show that the degradation of these proteins is dependent on the calpains”.

Regarding aprotinin, in assay [2], the “effect on calcium-dependent degradation” value is reported as “show that the degradation of these proteins is dependent on the calpains”.

B1: soybean trypsin inhibitor (protein, UniProt P01070 25-205, looked up)
Trypsin inhibitor A: DFVLDNEGNPLENGGTYYILSDITAFGGIRAAPTGNERCPLTVVQSRNELDKGIGTIISSPYRIRFIAEGHPLSLKFDSFAVIMLCVGIPTEWSVVEDLPEGPAVKIGENKDAMDGWFRLERVSDDEFNNYKLVFCPQQAEDDKCGDIGISIDHDDGTRRLVVSKNKPLVVQFQKLDKESL
Regarding B1, the “effect on calcium-dependent degradation” value in assay [2] is listed as “show that the degradation of these proteins is dependent on the calpains”.

(Values after patent publication US7837991B2, “Method of cancer treatment by p53 protein control” (Aventis Pharma, S.A., priority 1994, dated 2010).)
